# In PMC5053573, “Structure-Based Design of Tetrahydroisoquinoline-7-carboxamides as Selective Discoidin Domain Receptor 1 (DDR1) Inhibitors” (Journal of Medicinal Chemistry, 2016):
# Legend:
# Test in all cases: biochemical
# Details in all cases: read-out: %Ctrl @ 1000nM
# NEK11 = NEK11 (Homo sapiens, UniProt Q8NG66)
# RET(V804M) = RET(V804M) (Homo sapiens, UniProt P07949, V804M)
# PRKG1 = PRKG1 (Homo sapiens, UniProt Q13976)
# SRPK2 = SRPK2 (Homo sapiens, UniProt P78362)
# EPHA8 = EPHA8 (Homo sapiens, UniProt P29322)
# MYLK4 = MYLK4 (Homo sapiens, UniProt Q86YV6)
# PHKG1 = PHKG1 (Homo sapiens, UniProt Q16816)
# LCK = LCK (Homo sapiens, UniProt P06239)
# MYO3A = MYO3A (Homo sapiens, UniProt Q8NEV4)
# LATS2 = LATS2 (Homo sapiens, UniProt Q9NRM7)
# PRKG2 = PRKG2 (Homo sapiens, UniProt Q13237)
# TNK1 = TNK1 (Homo sapiens, UniProt Q13470)
# [1] = molecular target: JAK1(JH1domain-catalytic) (Homo sapiens, UniProt P23458)
# SLK = SLK (Homo sapiens, UniProt Q9H2G2)
# PRKCH = PRKCH (Homo sapiens, UniProt P24723)
# DCAMKL1 = molecular target: T1, DCAMKL1 (Homo sapiens, UniProt O15075)
# T1 construct: gene DCLK1
# PRKCE = PRKCE (Homo sapiens, UniProt Q02156)
# [2] = molecular target: RPS6KA5(Kin.Dom.1-N-terminal) (Homo sapiens, UniProt O75582)
# GAK = GAK (Homo sapiens, UniProt O14976)
# TGFBR2 = TGFBR2 (Homo sapiens, UniProt P37173)
# CDK3 = CDK3 (Homo sapiens, UniProt Q00526)
# PRKD2 = PRKD2 (Homo sapiens, UniProt Q9BZL6)
# KIT(D816H) = KIT(D816H) (Homo sapiens, UniProt P10721, D816H)
# PKAC-beta = molecular target: T2, PKAC-beta (Homo sapiens, UniProt P22694)
# T2 construct: gene PRKACB
# FLT3(D835H) = FLT3(D835H) (Homo sapiens, UniProt P36888, D835H)
# [3] = molecular target: ABL1(T315I)-nonphosphorylated (Homo sapiens, UniProt P00519, T315I)
# MAP4K3 = MAP4K3 (Homo sapiens, UniProt Q8IVH8)
# INSR = INSR (Homo sapiens, UniProt P06213)
# MRCKB = molecular target: T3, MRCKB (Homo sapiens, UniProt Q9Y5S2)
# T3 construct: gene CDC42BPB
# PIK3CA(M1043I) = PIK3CA(M1043I) (Homo sapiens, UniProt P42336, M1043I)
# MARK4 = MARK4 (Homo sapiens, UniProt Q96L34)
# PIK3CA(I800L) = PIK3CA(I800L) (Homo sapiens, UniProt P42336, I800L)
# FRK = FRK (Homo sapiens, UniProt P42685)
# PFTAIRE2 = molecular target: T4, PFTAIRE2 (Homo sapiens, UniProt Q96Q40)
# T4 construct: gene CDK15
# CSF1R-autoinhibited = CSF1R-autoinhibited (Homo sapiens, UniProt P07333)
# Chain of SLK (Q9H2G2 whole entry): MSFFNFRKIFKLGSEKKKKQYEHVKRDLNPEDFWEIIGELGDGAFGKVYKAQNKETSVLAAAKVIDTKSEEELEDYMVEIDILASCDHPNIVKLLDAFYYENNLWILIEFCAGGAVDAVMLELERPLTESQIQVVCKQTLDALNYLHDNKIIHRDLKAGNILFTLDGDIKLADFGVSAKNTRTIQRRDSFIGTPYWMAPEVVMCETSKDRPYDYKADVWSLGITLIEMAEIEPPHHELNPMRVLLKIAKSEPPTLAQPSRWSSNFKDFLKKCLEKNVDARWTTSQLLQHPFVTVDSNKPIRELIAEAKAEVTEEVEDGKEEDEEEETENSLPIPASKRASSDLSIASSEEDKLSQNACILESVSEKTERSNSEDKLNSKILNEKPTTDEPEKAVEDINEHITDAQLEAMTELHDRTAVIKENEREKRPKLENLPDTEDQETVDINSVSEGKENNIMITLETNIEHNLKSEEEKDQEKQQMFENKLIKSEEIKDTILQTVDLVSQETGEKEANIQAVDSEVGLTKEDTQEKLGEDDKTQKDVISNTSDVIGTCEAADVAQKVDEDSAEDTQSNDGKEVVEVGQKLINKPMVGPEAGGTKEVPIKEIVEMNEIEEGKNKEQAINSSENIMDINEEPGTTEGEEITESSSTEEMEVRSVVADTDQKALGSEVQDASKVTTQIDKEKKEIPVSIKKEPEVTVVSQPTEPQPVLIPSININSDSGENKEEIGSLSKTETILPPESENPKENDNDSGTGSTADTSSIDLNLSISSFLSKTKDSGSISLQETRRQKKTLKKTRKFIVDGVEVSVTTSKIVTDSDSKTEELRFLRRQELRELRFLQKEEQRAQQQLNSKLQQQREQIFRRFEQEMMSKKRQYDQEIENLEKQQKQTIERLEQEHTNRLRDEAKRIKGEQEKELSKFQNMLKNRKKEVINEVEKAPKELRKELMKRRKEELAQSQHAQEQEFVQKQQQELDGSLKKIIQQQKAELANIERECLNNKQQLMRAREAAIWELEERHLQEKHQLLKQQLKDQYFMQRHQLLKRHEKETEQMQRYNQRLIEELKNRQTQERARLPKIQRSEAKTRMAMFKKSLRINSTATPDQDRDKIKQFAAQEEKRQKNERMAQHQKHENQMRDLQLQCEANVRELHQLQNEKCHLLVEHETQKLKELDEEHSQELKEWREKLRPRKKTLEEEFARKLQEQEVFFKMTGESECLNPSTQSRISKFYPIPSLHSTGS
# Chain of JAK1(JH1domain-catalytic) (P23458 whole entry): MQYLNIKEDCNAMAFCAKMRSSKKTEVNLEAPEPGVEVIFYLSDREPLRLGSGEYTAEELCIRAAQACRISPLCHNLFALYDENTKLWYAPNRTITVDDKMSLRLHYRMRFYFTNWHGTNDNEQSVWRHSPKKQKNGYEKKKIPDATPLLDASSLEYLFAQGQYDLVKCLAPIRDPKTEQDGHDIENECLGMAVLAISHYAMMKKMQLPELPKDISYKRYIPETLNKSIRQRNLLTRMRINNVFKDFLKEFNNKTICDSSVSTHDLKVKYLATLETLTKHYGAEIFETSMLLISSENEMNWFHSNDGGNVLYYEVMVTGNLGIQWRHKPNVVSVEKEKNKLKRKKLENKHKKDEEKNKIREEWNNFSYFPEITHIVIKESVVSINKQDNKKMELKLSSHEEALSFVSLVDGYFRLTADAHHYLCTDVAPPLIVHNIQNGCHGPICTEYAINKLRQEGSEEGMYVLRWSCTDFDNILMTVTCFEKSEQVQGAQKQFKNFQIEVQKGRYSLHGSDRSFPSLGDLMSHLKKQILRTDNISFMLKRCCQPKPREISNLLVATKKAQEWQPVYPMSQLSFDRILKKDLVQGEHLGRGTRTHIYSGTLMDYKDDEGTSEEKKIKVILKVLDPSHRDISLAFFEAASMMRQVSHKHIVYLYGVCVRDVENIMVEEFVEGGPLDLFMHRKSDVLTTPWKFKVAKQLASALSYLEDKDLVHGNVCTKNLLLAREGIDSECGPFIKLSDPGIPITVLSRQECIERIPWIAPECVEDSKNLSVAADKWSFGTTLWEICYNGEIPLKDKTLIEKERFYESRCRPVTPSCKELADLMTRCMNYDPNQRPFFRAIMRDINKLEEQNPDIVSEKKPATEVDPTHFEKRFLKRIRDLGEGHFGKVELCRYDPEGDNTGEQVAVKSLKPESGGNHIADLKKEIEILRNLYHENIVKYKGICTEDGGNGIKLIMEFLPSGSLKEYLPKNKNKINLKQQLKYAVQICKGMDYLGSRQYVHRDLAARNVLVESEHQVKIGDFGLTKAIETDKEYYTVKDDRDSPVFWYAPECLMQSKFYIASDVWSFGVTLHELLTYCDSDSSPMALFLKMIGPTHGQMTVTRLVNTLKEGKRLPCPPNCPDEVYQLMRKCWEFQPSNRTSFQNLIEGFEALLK
# Chain of PRKG1 (Q13976 whole entry): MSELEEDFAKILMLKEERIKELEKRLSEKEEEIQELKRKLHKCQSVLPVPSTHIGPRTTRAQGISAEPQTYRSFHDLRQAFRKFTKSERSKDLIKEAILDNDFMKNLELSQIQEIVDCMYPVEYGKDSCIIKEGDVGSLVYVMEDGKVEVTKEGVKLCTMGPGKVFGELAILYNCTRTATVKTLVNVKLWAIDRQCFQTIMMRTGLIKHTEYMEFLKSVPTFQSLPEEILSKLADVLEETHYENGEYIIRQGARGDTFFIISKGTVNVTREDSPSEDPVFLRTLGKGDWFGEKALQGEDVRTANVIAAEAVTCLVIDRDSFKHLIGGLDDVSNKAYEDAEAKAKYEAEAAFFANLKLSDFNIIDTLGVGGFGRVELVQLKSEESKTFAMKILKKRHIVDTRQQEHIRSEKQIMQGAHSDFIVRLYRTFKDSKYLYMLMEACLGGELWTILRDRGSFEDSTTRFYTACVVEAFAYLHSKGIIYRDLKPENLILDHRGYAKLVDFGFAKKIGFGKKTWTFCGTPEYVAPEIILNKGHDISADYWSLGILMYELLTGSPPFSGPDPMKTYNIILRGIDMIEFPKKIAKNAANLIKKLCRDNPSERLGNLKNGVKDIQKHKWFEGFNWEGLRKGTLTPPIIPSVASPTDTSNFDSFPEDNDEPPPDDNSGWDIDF
# Chain of PRKCE (Q02156 whole entry): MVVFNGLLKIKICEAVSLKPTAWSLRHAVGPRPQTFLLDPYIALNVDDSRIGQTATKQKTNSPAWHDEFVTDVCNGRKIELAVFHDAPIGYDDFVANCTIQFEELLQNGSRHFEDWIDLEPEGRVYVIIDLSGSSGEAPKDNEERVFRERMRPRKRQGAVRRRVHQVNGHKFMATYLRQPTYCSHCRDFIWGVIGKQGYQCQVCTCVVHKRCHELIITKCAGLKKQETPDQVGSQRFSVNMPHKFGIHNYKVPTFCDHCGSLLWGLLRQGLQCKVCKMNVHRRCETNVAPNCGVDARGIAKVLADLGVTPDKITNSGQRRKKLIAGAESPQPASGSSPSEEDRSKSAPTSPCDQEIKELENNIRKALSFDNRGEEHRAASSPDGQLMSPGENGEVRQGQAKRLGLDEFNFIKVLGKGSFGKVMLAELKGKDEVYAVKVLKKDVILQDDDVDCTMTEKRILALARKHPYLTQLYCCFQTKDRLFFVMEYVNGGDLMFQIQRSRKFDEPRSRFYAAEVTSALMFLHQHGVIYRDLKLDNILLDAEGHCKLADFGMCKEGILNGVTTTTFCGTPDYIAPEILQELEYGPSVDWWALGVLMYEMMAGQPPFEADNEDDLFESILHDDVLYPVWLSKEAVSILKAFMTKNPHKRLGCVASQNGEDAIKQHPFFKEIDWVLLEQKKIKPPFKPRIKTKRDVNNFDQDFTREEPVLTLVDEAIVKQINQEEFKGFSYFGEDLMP
# Chain of RET(V804M) (P07949 whole entry V804M): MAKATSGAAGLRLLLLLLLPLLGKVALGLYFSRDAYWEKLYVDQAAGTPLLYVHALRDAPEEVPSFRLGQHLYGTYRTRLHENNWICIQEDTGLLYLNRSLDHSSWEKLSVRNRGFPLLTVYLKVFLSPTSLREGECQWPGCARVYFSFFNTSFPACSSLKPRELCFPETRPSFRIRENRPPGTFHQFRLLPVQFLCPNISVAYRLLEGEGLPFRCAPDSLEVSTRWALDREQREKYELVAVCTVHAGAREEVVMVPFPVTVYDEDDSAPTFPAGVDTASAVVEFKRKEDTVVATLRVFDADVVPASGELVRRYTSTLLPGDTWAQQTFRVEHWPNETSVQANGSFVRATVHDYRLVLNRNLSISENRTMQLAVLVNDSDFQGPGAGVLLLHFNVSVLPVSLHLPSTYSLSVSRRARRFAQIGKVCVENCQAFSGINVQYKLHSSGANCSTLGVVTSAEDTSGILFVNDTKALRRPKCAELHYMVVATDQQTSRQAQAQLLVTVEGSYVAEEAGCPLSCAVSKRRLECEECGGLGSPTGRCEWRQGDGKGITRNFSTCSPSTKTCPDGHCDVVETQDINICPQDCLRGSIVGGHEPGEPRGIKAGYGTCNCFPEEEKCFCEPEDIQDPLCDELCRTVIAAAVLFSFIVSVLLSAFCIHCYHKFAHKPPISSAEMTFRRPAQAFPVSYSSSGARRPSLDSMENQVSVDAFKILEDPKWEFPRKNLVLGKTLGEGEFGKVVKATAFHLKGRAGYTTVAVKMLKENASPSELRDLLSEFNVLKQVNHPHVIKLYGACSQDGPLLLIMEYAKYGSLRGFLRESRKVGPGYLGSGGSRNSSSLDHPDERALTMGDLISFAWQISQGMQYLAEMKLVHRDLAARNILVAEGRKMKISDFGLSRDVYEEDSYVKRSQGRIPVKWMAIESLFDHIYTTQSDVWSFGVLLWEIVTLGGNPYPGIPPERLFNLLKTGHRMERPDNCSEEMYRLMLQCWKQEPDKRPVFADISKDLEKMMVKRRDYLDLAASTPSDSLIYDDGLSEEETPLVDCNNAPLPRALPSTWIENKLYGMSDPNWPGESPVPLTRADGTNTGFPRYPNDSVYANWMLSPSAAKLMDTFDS
smiles,measurement,setting,value
Cc1cn(-c2cc(NC(=O)c3ccc4c(c3)CN(c3cncnc3)C[C@@H]4C)cc(C(F)(F)F)c2)cn1 [Compound 6j],remaining activity at 1 µM,NEK11,87%
same,remaining activity at 1 µM,RET(V804M),100%
same,remaining activity at 1 µM,PRKG1,81%
same,remaining activity at 1 µM,SRPK2,100%
same,remaining activity at 1 µM,EPHA8,21%
same,remaining activity at 1 µM,MYLK4,100%
same,remaining activity at 1 µM,PHKG1,95%
same,remaining activity at 1 µM,LCK,74%
same,remaining activity at 1 µM,MYO3A,93%
same,remaining activity at 1 µM,LATS2,100%
same,remaining activity at 1 µM,PRKG2,98%
same,remaining activity at 1 µM,TNK1,79%
same,remaining activity at 1 µM,[1],100%
same,remaining activity at 1 µM,SLK,71%
same,remaining activity at 1 µM,PRKCH,97%
same,remaining activity at 1 µM,DCAMKL1,100%
same,remaining activity at 1 µM,PRKCE,100%
same,remaining activity at 1 µM,[2],97%
same,remaining activity at 1 µM,GAK,95%
same,remaining activity at 1 µM,TGFBR2,94%
same,remaining activity at 1 µM,CDK3,97%
same,remaining activity at 1 µM,PRKD2,92%
same,remaining activity at 1 µM,KIT(D816H),100%
same,remaining activity at 1 µM,PKAC-beta,97%
same,remaining activity at 1 µM,FLT3(D835H),59%
same,remaining activity at 1 µM,[3],100%
same,remaining activity at 1 µM,MAP4K3,96%
same,remaining activity at 1 µM,INSR,100%
same,remaining activity at 1 µM,MRCKB,94%
same,remaining activity at 1 µM,PIK3CA(M1043I),93%
same,remaining activity at 1 µM,MARK4,100%
same,remaining activity at 1 µM,PIK3CA(I800L),100%
same,remaining activity at 1 µM,FRK,63%
same,remaining activity at 1 µM,PFTAIRE2,86%
same,remaining activity at 1 µM,CSF1R-autoinhibited,93%
